Consider ten compounds from patent US5811445A, “Method of preventing abnormal stimulation of AT1 and AT2 receptors” (Roussel Uclaf, priority 1994, dated 1998).

Where two headings read alike, the source gives them in different places.

Experiment [1] deals with angiotensin II (pressure effects). The experiment in a line: Test for antagonistic activity of angiotensin II in the demedullated rat. It is filed as in vivo, Male Sprague-Dawley rats. Conditions: IV, inhibition of pressure effects of angiotensin II (0.75 micrograms/kg), read-out: ID50 IV. As for the experimental part: 3 - Test for antagonistic activity of angiotensin II in the demedullated rat
Male Sprague-Dawley rats (250 to 350 g) are anaesthetized by an intraperitoneal injection with sodium pentobarbital (60 mg/kg). The diastolic arterial pressure is recorded by means of a heparin catheter (PE50) introduced into the left carotid of the animal, and connected to a pressure processor (Gould, Pressure Processor) via a Gould pressure sensor.
A catheter is introduced into the right jugular vein of the animal in order to allow injection of the molecules being studied.
The animal is placed under assisted respiration. A bilateral section of the vagus nerves is carried out. The rat is then demedullated.
After a sufficient stabilization period, study of the antagonism of the molecules vis-a-vis angiotensin II (Hypertensin, CIBA) is carried out in the following manner:
1 - Three consecutive injections of angiotensin II (0.75 micrograms/kg) 15 minutes apart allow a reproducible and stable pressure response to be obtained.
2 - While maintaining a periodicity of 15 minutes for the administration of angiotensin II, the molecules (0.01 to 10 mg/kg) are injected 5 minutes before the angiotensin II.
The pressure effects of angiotensin II in the presence of the antagonist are expressed as a percentage of the pressure effects of angiotensin II administered alone. The 50% inhibitory dose (ID50) of the effect studied is thus determined.
Each animal is considered as its own control.

Experiment [2] has as its target T1, AT2 receptor of angiotensin II (Oryctolagus cuniculus, UniProt G1T351).
T1 construct: A fresh membrane preparation obtained from rabbit's uterus is used; from tissue; host or cells: uterus membranes of estradiol-treated rabbits
T1 sequence (G1T351 1-363): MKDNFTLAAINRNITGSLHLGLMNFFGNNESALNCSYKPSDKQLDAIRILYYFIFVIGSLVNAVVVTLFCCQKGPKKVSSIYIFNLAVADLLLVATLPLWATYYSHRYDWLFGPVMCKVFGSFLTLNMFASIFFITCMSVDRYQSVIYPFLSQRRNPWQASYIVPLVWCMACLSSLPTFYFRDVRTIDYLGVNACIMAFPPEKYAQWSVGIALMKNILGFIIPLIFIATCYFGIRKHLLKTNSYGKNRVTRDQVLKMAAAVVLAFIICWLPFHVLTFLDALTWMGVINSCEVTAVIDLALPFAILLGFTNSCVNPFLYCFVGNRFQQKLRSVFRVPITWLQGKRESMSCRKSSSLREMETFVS
In words: Test on the AT2 receptor of angiotensin II (displacement of 125I angiotensin II, rabbit uterus membranes). The format is binding. As for the experimental part:
2) Test on the AT2 receptor of angiotensin II
The tissue is ground up in a polytron in a 50 mM Tris buffer pH 7.4, and the grinding is followed by 3 centrifugations at 30,000 g for 15 minutes, with intermediate take up of the pellets in the Tris buffer pH 7.4.
The homogenate obtained is preincubated for 20 minutes at 25° C. in the presence of 10 mM dithiothreitol, then brought back to 0°-4° C.
The product is first tested at 3.10^-5 M three times. When the tested product displaces more than 50% of the radioactivity specifically bound to the receptor, it is tested again according to a range of 7 concentrations in order to determine the concentration which inhibits by 50% the radioactivity specifically bound to the receptor. In this way the 50% inhibitory concentration is determined.
(§1) After incubation at 25° C. for 150 minutes, placing in a water-bath at 0° C. for 5 minutes, filtration under vacuum, and rinsing with Tris buffer pH 7.4, the radioactivity is counted in the presence of a scintillating solid.

Experiment [3] concerns the target T2, AT1 receptor of angiotensin II (Rattus norvegicus, UniProt P25095).
T2 construct: A fresh membrane preparation obtained from rat's liver is used; from tissue; host or cells: rat liver membranes
T2 sequence (P25095 1-359): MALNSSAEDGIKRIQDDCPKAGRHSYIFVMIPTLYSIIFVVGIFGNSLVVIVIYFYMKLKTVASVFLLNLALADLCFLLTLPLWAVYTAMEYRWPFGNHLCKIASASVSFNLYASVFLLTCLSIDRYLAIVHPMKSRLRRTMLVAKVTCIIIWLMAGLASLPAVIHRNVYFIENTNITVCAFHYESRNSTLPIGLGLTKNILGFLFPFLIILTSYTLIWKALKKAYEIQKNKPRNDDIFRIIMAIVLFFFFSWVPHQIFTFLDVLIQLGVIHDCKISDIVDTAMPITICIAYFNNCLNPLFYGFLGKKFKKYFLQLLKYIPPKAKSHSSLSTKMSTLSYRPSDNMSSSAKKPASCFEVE
In words: Test on the AT1 receptor of angiotensin II (displacement of 125I angiotensin II, rat liver membranes). It is filed as binding. As for the experimental part: 1 - Test on the AT1 -receptor of angiotensin II
A fresh membrane preparation obtained from rat's liver is used. The tissue is ground up in a polytron in a 50 mM Tris buffer pH 7.4, the grinding is followed by 3 centrifugations at 30,000 g for 15 minutes with intermediate take up of the pellets in the Tris buffer pH 7.4.
(The product is first tested with 3×10^-5 M three times). When the tested product displaces more than 50% of the radioactivity specifically bound to the receptor, it is tested again according to a range of 7 concentrations in order to determine the concentration which inhibits by 50% the radioactivity specifically bound to the receptor. In this way the 50% inhibitory concentration is determined).
as §1
In general terms: In a radioligand displacement assay an active substance lowers the binding of a labelled ligand.

[4] abbreviates: rabbit uterus membrane (estradiol pre-treated), 125I angiotensin II, 25° C., 150 minutes, read-out: AT2 Receptor IC50.
[5] abbreviates: rat liver membrane, 125I angiotensin II, 25° C., 150 minutes, read-out: AT1 Receptor IC50.
Where [6] appears, read: products P1 to P13, expressed in nM, read-out: On AT2 receptor IC50.
[7] abbreviates: products P1 to P13, expressed in nM, read-out: On AT1 receptor IC50.

One may read the IC50 as the concentration that inhibits the measured activity by half. With `CCCCc1nc(SC)c(C(C)(O)C(=O)O)n1Cc1ccc(-c2ccccc2S(=O)(=O)NC(=O)OCc2ccccc2)cc1` (stereo not drawn) [Example 7, 2-butyl alpha-hydroxy alpha-methyl 4-(methylthio) 1-[(2'-((((phenylmethoxy)carbonyl)amino)sulphonyl) (1,1'-biphenyl) 4-yl)methyl] 1H-imidazole 5-acetic acid], in experiment [1], the ED50 was determined as 0.6 mg/kg. Moreover, the IC50 in experiment [2] (setting [4]) came to 5.2 nM; in experiment [3] (setting [5]) it was 0.7 nM.
As for `CCCCc1nc(SC)c(C(=O)O)n1Cc1ccc(-c2ccccc2S(=O)(=O)NC(=O)C(c2ccccc2)c2ccccc2)cc1` [Example 30, 2-butyl 1-[(2'-(((diphenylacetyl)amino)sulphonyl) (1,1'-biphenyl) 4-yl)methyl] 4-(methylthio) 1H-imidazole 5-carboxylic acid], the ED50 in experiment [1] was found to be 0.93 mg/kg.
`CCCCC(O)(C(=O)O)c1c(SC)nc(CCC)n1Cc1ccc(-c2ccccc2S(=O)(=O)NC(=O)NCc2ccccc2)cc1` (stereo not drawn) [Example 32, sodium alpha-butyl alpha-hydroxy 4-(methylthio) 1-[(2'-(((((phenylmethyl)amino)carbonyl)amino)sulphonyl) (1,1'-biphenyl) 4-yl)methyl] 2-propyl 1H-imidazole 5-acetate]: the ED50 in experiment [1] was 0.46 mg/kg. Further, the IC50 in experiment [2] (setting [4]) is 0.8 nM; in experiment [3] (setting [5]), 0.5 nM.
As to `CCCCc1nc(SC)c(C(N)=O)n1Cc1ccc(-c2ccccc2S(=O)(=O)NC(=O)NCCC)cc1` [Example 35, 2-butyl 4-(methylthio) 1-((2'-((((propylamino)carbonyl)amino)sulphonyl) (1,1'-biphenyl) 4-yl)methyl) 1H-imidazole 5-carboxamide], the ED50 in experiment [1] came out at 0.05 mg/kg.
`CCCc1nc(SC(F)F)c(C(=O)O)n1Cc1ccc(-c2ccccc2S(=O)(=O)NC(=O)NCCc2ccccc2)cc1` [Example 48]: the ED50 in experiment [1] was determined as 0.64 mg/kg.
Still for that read-out and setting: the value for `CCCc1nc(SC)c(C(=O)O)n1Cc1ccc(-c2ccccc2S(=O)(=O)NC(=O)Nc2ccccc2)cc1` [Example 62, 4-(methylthio) 1-((2'-((((phenylamino)carbonyl)amino)sulphonyl) (1,1'-biphenyl) 4-yl)methyl) 2-propyl 1H-imidazole 5-carboxylic acid] was 0.52 mg/kg; that for `CCCCc1nc(SC)c(C(O)CC(=O)O)n1Cc1ccc(-c2ccccc2S(=O)(=O)NC(=O)NCc2ccccc2)cc1` (stereo not drawn) [Example 65, 2-butyl beta-hydroxy 4-(methylthio) 1-((2'-(((((phenylmethyl)amino)carbonyl)amino)sulphonyl) (1,1'-biphenyl) 4-yl)methyl) 1H-imidazole 5-propionic acid] was 0.05 mg/kg.
On to `CCCCc1nc(SC)c(C(=O)O)n1Cc1ccc(-c2ccccc2S(=O)(=O)NC(=O)OCC2CCCCC2)cc1` [Example P11, 2-butyl 1-[(2'-((((cyclohexyl)methoxycarbonyl)amino)sulphonyl) (1,1'-biphenyl) 4-yl)methyl] 4-methylthio 1H-imidazole 5-carboxylic acid], for which the values for the IC50 in experiment [2] (setting [6]) and in experiment [3] (setting [7]) were 24 nM and 0.14 nM, respectively.
Regarding `CCCCc1nc(SC)c(C(=O)O)n1Cc1ccc(-c2ccccc2S(=O)(=O)NC(=O)OCc2ccccc2)cc1` [Example P12, 2-butyl 4-(methylthio) 1-[(2'-(((phenylmethoxycarbonyl)amino)sulphonyl) (1,1'-biphenyl) 4-yl)methyl] 1H-imidazole 5-carboxylic acid], the results for the IC50 in experiment [2] (setting [6]) and in experiment [3] (setting [7]) were 54 nM and 0.8 nM, respectively.
The matching figures for `CCCCc1nc(OC)c(C=O)n1Cc1ccc(-c2ccccc2S(=O)(=O)NC(=O)OCc2ccccc2)cc1` [Example P13, (phenylmethyl) ((4'-((2-butyl 5-formyl 4-methoxy 1H-imidazol 1-yl)methyl) (1,1'-biphenyl) 2-yl)sulphonyl) carbamate]: 63 nM and 5.9 nM.
